The text below walks through data of patent US20150196033A1, “PESTICIDAL COMPOSITIONS AND PROCESSES RELATED THERETO” (priority 2012, published 2015).

Molecules are shown by their SMILES. Like-named read-outs stand apart in the source and are kept apart here.

Type in all cases: in vivo
The subject of series [1] is Beet Armyworm (BAW) (Spodoptera exigua). Nature of the series: Bioassay on Beet Armyworm (BAW), 128-well diet tray assay. The note with it: for mortality at 50 µg/cm2: Spodoptera exigua, 168 h, read-out: Rating BAW (% Control (or Mortality)). The protocol:
(§1) Certain molecules disclosed in this document were tested against BAW and CEW using procedures described in the following examples. In the reporting of the results, the “BAW & CEW Rating Table” was used (See Table Section).
Bioassays on BAW (Spodoptera exigua)
(§2) Trays were covered with a clear self-adhesive cover and held at 25° C., 14:10 light-dark for five to seven days. Percent mortality was recorded for the larvae in each well; activity in the eight wells was then averaged. The results are indicated in the table entitled “Table ABC: Biological Results” (See Table Section).

In series [2] the test system is Corn Earworm (CEW) (Helicoverpa zea). Nature of the series: Bioassay on Corn Earworm (CEW), 128-well diet tray assay. The note with it: for mortality at 50 µg/cm2 / mortality at 0.5 µg/cm2: Helicoverpa zea, 168 h; for mortality at 50 µg/cm2: read-out: Rating CEW (% Control (or Mortality)); for mortality at 0.5 µg/cm2: 0.5 μg/cm2 on artificial diet, read-out: Rating CEW (% Control (or Mortality)), *Tested at 0.5 μg/cm2. The protocol: as §1
Bioassays on CEW (Helicoverpa zea)
as §2

Series [3] relates to Green Peach Aphid (GPA) (Myzus persicae). Nature of the series: Bioassay on Green Peach Aphid (GPA), foliar spray on cabbage seedlings. The note with it: Myzus persicae, 72 h; 200 ppm foliar spray on cabbage seedlings, graded after three days, Abbott corrected % control; read-out: Rating GPA (% Control (or Mortality)). The protocol:
Certain molecules disclosed in this document were tested against GPA using procedures described in the following example. In the reporting of the results, the “GPA Rating Table” was used (See Table Section).
Cabbage seedlings grown in 3-inch pots, with 2-3 small (3-5 cm) true leaves, were used as test substrate. The seedlings were infested with 20-50 GPA (wingless adult and nymph stages) one day prior to chemical application. Four pots with individual seedlings were used for each treatment. Test compounds (2 mg) were dissolved in 2 mL of acetone/MeOH (1:1) solvent, forming stock solutions of 1000 ppm test compound. The stock solutions were diluted 5× with 0.025% Tween 20 in H2O to obtain the solution at 200 ppm test compound. A hand-held aspirator-type sprayer was used for spraying a solution to both sides of […] leaves until runoff. Reference plants (solvent check) were sprayed with the diluent only containing 20% by volume of acetone/MeOH (1:1) solvent. Treated plants were held in a holding room for three days at approximately 25° C. and ambient relative humidity (RH) prior to grading. Evaluation was conducted by counting the number of live aphids per plant under a microscope. Percent Control was measured by using Abbott's correction formula (W.S. Abbott, “A Method of Computing the Effectiveness of an Insecticide” J. Econ. Entomol. 18 (1925), pp. 265-267) as follows.
Corrected % Control=100*(X−Y)/X • where • X=No. of live aphids on solvent check plants and • Y=No. of live aphids on treated plants

Where [4] appears, read: 50 μg/cm2 on artificial diet, second instar larvae, five to seven days.
[5] abbreviates: second instar larvae, five to seven days.

As to `Cc1cccc(C)c1N/C(O)=C/C(=O)Nc1ccc(-c2ncn(-c3ccc(OC(F)(F)F)cc3)n2)cc1` [Molecule A32, (Z)-3-(2,6-dimethylphenylamino)-3-hydroxy-I-(4-(1-(4-(trifluoromethoxy)phenyl)-1H-1,2,4-triazol-3-yl)phenyl)acrylamide], the mortality at 50 µg/cm2 in series [1] (setting [4]) and in series [2] (setting [4]) was 50 to 100% throughout. The mortality at 200 ppm in series [3] is 0%.
Take `CC(=O)/C(C(=O)Nc1ccc(-c2ncn(-c3ccc(OC(F)(F)F)cc3)n2)cc1)=C(/S)Nc1ccccc1C(C)C` [Molecule A20, (E)-3-hydroxy-2-((2-isopropylphenyl)carbamothioyl)-N-(4-(1-(4-(trifluoromethoxy)phenyl)-1H-1,2,4-triazol-3-yl)phenyl)but-2-enamide]: the mortality at 50 µg/cm2 in series [1] (setting [4]) and in series [2] (setting [4]) was 50 to 100% each time. For the same compound, in series [3], the mortality at 200 ppm was found to be 0%.
In the case of `Cc1ccccc1N/C(S)=C/C(=O)Nc1ccc(-c2ncn(-c3ccc(OC(F)(F)F)cc3)n2)cc1` [Molecule A22, 3-thioxo-3-(o-tolylamino)-N-(4-(1-(4-(trifluoromethoxy)phenyl)-1H-1,2,4-triazol-3-yl)phenyl)propanamide], the mortality at 50 µg/cm2 in series [1] (setting [4]) and in series [2] (setting [4]) was 50 to 100% each time. The mortality at 200 ppm in series [3] turned out to be 0%.
With `Cc1cccc(C)c1N/C(S)=N/C(=O)Nc1ccc(-c2ncn(-c3ccc(C(F)(F)F)cc3)n2)cc1` [Molecule A12], the mortality at 50 µg/cm2 in series [1] (setting [4]) and in series [2] (setting [4]) was 50 to 100% in each case. For the same compound, the mortality at 200 ppm in series [3] was 0%.
On to `Cc1cccc(C)c1N/C(S)=N/C(=O)Nc1ccc(-c2ncn(-c3ccc(OC(F)(F)F)cc3)n2)cc1` [Molecule A11], for which the mortality at 50 µg/cm2 in series [1] (setting [4]) and in series [2] (setting [4]) was 50 to 100% each time. In addition, the mortality at 200 ppm in series [3] is 0 to 80%.
`CCC(C)c1ccccc1N/C(=N\C(=O)Nc1ccc(-c2ncn(-c3ccc(OC(F)(F)F)cc3)n2)cc1)SCOC(=O)C(C)C` (centres unmarked) [Molecule A54]: the mortality at 50 µg/cm2 in series [1] (setting [4]) and in series [2] (setting [4]) was 50 to 100% each time.
In the case of `Cc1cccc(Cl)c1N1C(=O)CS/C1=N\C(=O)Nc1ccc(-c2ncn(-c3ccc(OC(F)(F)F)cc3)n2)cc1` [Molecule A74], the mortality at 50 µg/cm2 in series [1] (setting [4]) is 50 to 100%. In addition, the mortality at 0.5 µg/cm2 in series [2] (setting [5]) lay in the range of 50 to 100%.
On to `CC(C)c1ccccc1N1C(=O)CS/C1=C\C(=O)Nc1ccc(-c2ncn(-c3ccc(OC(F)(F)F)cc3)n2)cc1` [Molecule A24, (Z)-2-(3-(2-isopropylphenyl)-4-oxothiazolidin-2-ylidene)-N-(4-(1-(4-(trifluoromethoxy)phenyl)-1H-1,2,4-triazol-3-yl)phenyl)acetamide], for which the mortality at 50 µg/cm2 in series [1] (setting [4]) and in series [2] (setting [4]) was 50 to 100% in each case.
`Cc1ccc(N/C(S)=N/C(=O)Nc2ccc(-c3ncn(-c4ccc(OC(F)(F)F)cc4)n3)cc2)c(Cl)c1` [Molecule A73]: the mortality at 50 µg/cm2 in series [1] (setting [4]) was 50 to 100%. For the same compound, the mortality at 0.5 µg/cm2 in series [2] (setting [5]) was in the range of 50 to 100%.
As to `O=C(/N=C(\S)Nc1ccccc1Cc1ccccc1)Nc1ccc(-c2ncn(-c3ccc(OC(F)(F)F)cc3)n2)cc1` [Molecule A101], in series [1] (setting [4]), the mortality at 50 µg/cm2 fell in the range of 50 to 100%. The mortality at 0.5 µg/cm2 in series [2] (setting [5]) is 50 to 100%.
For `CCc1cccc(C)c1N/C(=N\C(=O)Nc1ccc(-c2ncn(-c3ccc(OC(F)(F)F)cc3)n2)cc1)SCOC(=O)C(C)C` [Molecule A55], the mortality at 50 µg/cm2 in series [1] (setting [4]) and in series [2] (setting [4]) was 50 to 100% each time.
For the compound `COc1ccc(N/C(=N/C(=O)Nc2ccc(-c3ncn(-c4ccc(OC(F)(F)F)cc4)n3)cc2)SCS[C@@H]2O[C@@H](C)[C@H](OC)[C@@H](OC)[C@H]2OC)c(C)c1` [Molecule A10, (Z)-(((2S,3R,4R,5S,6S)-3,4,5-Trimethoxy-6-methyltetrahydro-2H-pyran-2-yl)thio)methyl N-(4-methoxy-2-methylphenyl)-N′-((4-(1-(4-(trifluoromethoxy)phenyl)-1H-1,2,4-triazol-3-yl)phenyl)carbamoyl) carbamimidothioate], the mortality at 50 µg/cm2 in series [1] (setting [4]) and in series [2] (setting [4]) was 50 to 100% in each case.
Turning to `CC(C)c1ccccc1N/C(S)=N/C(=O)Nc1ccc(-c2ncn(-c3ccc(OC(F)(F)F)cc3)n2)cc1` [Molecule A48], the mortality at 50 µg/cm2 in series [1] (setting [4]) and in series [2] (setting [4]) was 50 to 100% in each case.
`Cc1c(F)cccc1N/C(S)=N/C(=O)Nc1ccc(-c2ncn(-c3ccc(OC(F)(F)F)cc3)n2)cc1` [Molecule A79]: the mortality at 50 µg/cm2 in series [1] (setting [4]) lay within 50 to 100%. Moreover, the mortality at 0.5 µg/cm2 in series [2] (setting [5]) lay in the range of 50 to 100%.
For the compound `Cc1ccccc1N/C(S)=C(\C#N)C(=O)Nc1ccc(-c2ncn(-c3ccc(OC(F)(F)F)cc3)n2)cc1` [Molecule A29, (Z)-2-Cyano-3-mercapto-3-(o-tolylamino)-N-(4-(1-(4-(trifluoromethoxy)phenyl)-1H-1,2,4-triazol-3-yl)phenyl)acrylamide], the figures for the mortality at 50 µg/cm2 in series [1] (setting [4]) and in series [2] (setting [4]) were 0 to 50% and 50 to 100%, respectively.
`CC(C)C(=O)OCS/C(=N\C(=O)Nc1ccc(-c2ncn(-c3ccc(OC(F)(F)F)cc3)n2)cc1)Nc1ccccc1C(C)C` [Molecule A5, (Z)-((N-(2-Isopropylphenyl)-N′-((4-(1-(4-(trifluoromethoxy)phenyl)-1H-1,2,4-triazol-3-yl)phenyl)carbamoyl)carbamimidoyl)thio)methyl isobutyrate]: the mortality at 50 µg/cm2 in series [1] (setting [4]) and in series [2] (setting [4]) was 50 to 100% in each case.
As for `COc1ccc(NC(=O)NC(=O)Nc2ccc(-c3ncn(-c4ccc(C(F)(F)F)cc4)n3)cc2)c(C)c1` [Molecule A53], in series [1] (setting [4]), the “Rating BAW (% Control (or Mortality))” value is on record as “D (No activity noticed in this bioassay)”. Moreover, the “Rating CEW (% Control (or Mortality))” value in series [2] (setting [4]) is recorded as “D (No activity noticed in this bioassay)”.
For the compound `Cc1cccc(N/C(S)=N/C(=O)Nc2ccc(-c3ncn(-c4ccc(OC(F)(F)F)cc4)n3)cc2)c1C(C)C` [Molecule A106], in series [1] (setting [4]), the mortality at 50 µg/cm2 fell in the range of 50 to 100%. Further, in series [2] (setting [5]), the mortality at 0.5 µg/cm2 lay within 50 to 100%.
Turning to `Cc1cc(C)c(N/C(S)=N/C(=O)Nc2ccc(-c3ncn(-c4ccc(OC(F)(F)F)cc4)n3)cc2)c(C)c1` [Molecule A49], the mortality at 50 µg/cm2 in series [1] (setting [4]) and in series [2] (setting [4]) was 50 to 100% in each case.
With `Cc1cccc(N2C(=O)CS/C2=N\C(=O)Nc2ccc(-c3ncn(-c4ccc(OC(F)(F)F)cc4)n3)cc2)c1C(C)C` [Molecule A108], the mortality at 50 µg/cm2 in series [1] (setting [4]) was 50 to 100%. Further, the mortality at 0.5 µg/cm2 in series [2] (setting [5]) fell in the range of 50 to 100%.
With `CC(C)c1ccccc1N/C(S)=N/C(=O)Nc1ccc(-c2ncn(-c3ccc(C(F)(F)C(F)(F)C(F)(F)F)cc3)n2)cc1` [Molecule A113], the mortality at 50 µg/cm2 in series [1] is 50 to 100%; in series [2], 0%.
`O=C(/N=C(\S)Nc1ccccc1C1CC1)Nc1ccc(-c2ncn(-c3ccc(OC(F)(F)F)cc3)n2)cc1` [Molecule A63]: the mortality at 50 µg/cm2 in series [1] (setting [4]) was in the range of 50 to 100%. For the same compound, the mortality at 0.5 µg/cm2 in series [2] (setting [5]) was in the range of 50 to 100%.
Consider `Cc1cccc(C)c1N/C(=N/C(=O)Nc1ccc(-c2ncn(-c3ccc(C(F)(F)F)cc3)n2)cc1)SCOC(=O)CNC(=O)OCc1ccccc1` [Molecule A8, (Z)-((N-(2,6-Dimethylphenyl)-N′-((4-(1-(4-(trifluoromethyl)phenyl)-1H-1,2,4-triazol-3-yl)phenyl)carbamoyl)carbamimidoyl)thio)methyl 2-(((benzyloxy)carbonyl)amino)acetate], for which the mortality at 50 µg/cm2 in series [1] and in series [2] was 50 to 100% in each case.
With `CC(C)c1ccccc1N/C(S)=N/C(=O)Nc1ccc(-c2nnc(-c3ccc(OC(F)(F)C(F)(F)F)cc3)o2)cc1` [Molecule A96], the mortality at 50 µg/cm2 in series [1] (setting [4]) was 50 to 100%; in series [2] (setting [4]), 0%.
In the case of `CCc1ccccc1N/C(=N\C(=O)Nc1ccc(-c2ncn(-c3ccc(OC(F)(F)F)cc3)n2)cc1)SCOC(=O)C(C)C` [Molecule A57], the mortality at 50 µg/cm2 in series [1] (setting [4]) and in series [2] (setting [4]) was 50 to 100% in each case.
Consider `Cc1ccc(N/C(S)=N/C(=O)Nc2ccc(-c3ncn(-c4ccc(OC(F)(F)F)cc4)n3)cc2)c(C)c1` [Molecule A68], for which, in series [1] (setting [4]), the mortality at 50 µg/cm2 was in the range of 50 to 100%. The mortality at 0.5 µg/cm2 in series [2] (setting [5]) was 50 to 100%.
For the compound `CC(C)n1nccc1N/C(S)=N/C(=O)Nc1ccc(-c2ncn(-c3ccc(OC(F)(F)F)cc3)n2)cc1` [Molecule A119], the mortality at 50 µg/cm2 in series [1] (setting [4]) fell in the range of 50 to 100%. In series [2] (setting [5]), the mortality at 0.5 µg/cm2 was 0 to 50%.
